Data published in PubChem BioAssay (NCI).
“And” between values parts separate entries of the source, which are not always exact repeats. Identical values can stand only once.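 Briefly, cells in 96-well plates were exposed to five compound concentrations for 48 h, and endpoints were estimated by linear interpolation. The concentration for 50% growth inhibition is given as GI50. Definition used: TGI = concentration required for complete inhibition of growth.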

How the values were obtained:
Assay in all cases: growth of human tumour cells (NCI), 48 h
SF-295 CNS = tested on: SF-295 CNS
UACC-62 melanoma = tested on: UACC-62 melanoma
LOX IMVI melanoma = tested on: LOX IMVI melanoma
HT29 colon = tested on: HT29 colon
ACHN renal = tested on: ACHN renal
786-0 renal = tested on: 786-0 renal
SK-MEL-2 melanoma = tested on: SK-MEL-2 melanoma
MALME-3M melanoma = tested on: MALME-3M melanoma
PC-3 prostate = tested on: PC-3 prostate
BT-549 breast = tested on: BT-549 breast

Compound | TGI (SF-295 CNS) | TGI (UACC-62 melanoma) | TGI (LOX IMVI melanoma) | TGI (HT29 colon) | TGI (ACHN renal) | TGI (786-0 renal) | TGI (SK-MEL-2 melanoma) | TGI (MALME-3M melanoma) | TGI (PC-3 prostate) | TGI (BT-549 breast) | GI50 (SF-295 CNS) | GI50 (UACC-62 melanoma) | GI50 (LOX IMVI melanoma) | GI50 (HT29 colon) | GI50 (ACHN renal) | GI50 (786-0 renal) | GI50 (SK-MEL-2 melanoma) | GI50 (MALME-3M melanoma) | GI50 (PC-3 prostate) | GI50 (BT-549 breast)
C=CCc1ccc(Oc2cc(CC=C)c3c(c2O)O[C@@H](CO)[C@H]3c2ccc(O)c(-c3cc(CC=C)ccc3O)c2)cc1 | > 100 µM | 85 µM | 30.9 µM | 49.1 µM | > 100 µM | > 100 µM | 65.7 µM | > 100 µM | – | – | – | – | – | – | – | – | – | – | – | –
CCN(CC)c1ccc(N=Nc2ccc(-c3nc4ccc[n+](C)c4s3)cc2)cc1 | 37 µM | 26.6 µM | 15.8 µM | 18.5 µM | – | 59.1 µM | 25.5 µM | 26.3 µM | – | – | – | – | – | – | – | – | – | – | – | –
O=C1/C(=C/c2cccc([N+](=O)[O-])c2)COc2ccc(Br)cc21 | > 100 µM | – | > 100 µM | > 100 µM | > 100 µM | > 100 µM | > 100 µM | > 100 µM | – | – | – | – | – | – | – | – | – | – | – | –
CC1=CC(C/C(C)=C/COc2ccc3ccc(=O)oc3c2)OC1=O (stereo unspecified) | > 100 µM | > 100 µM | > 100 µM | > 100 µM | > 100 µM | > 100 µM | – | – | > 100 µM | > 100 µM | – | – | – | – | – | – | – | – | – | –
COc1c(CCl)cc(-c2cc(=O)c3ccccc3s2)cc1CCl | 36.1 µM | > 100 µM | – | – | > 100 µM | 1.74 µM | > 100 µM | – | > 100 µM | > 100 µM | – | – | – | – | – | – | – | – | – | –
O=C1CC2c3ccccc3CCC2c2ccccc21 (stereo unspecified) | 49.7 µM | 69.6 µM | 34.3 µM | 30.6 µM | > 100 µM | 79.8 µM | 35.9 µM | – | 90.6 µM | – | – | – | – | – | – | – | – | – | – | –
CSC(C1c2ccccc2N(c2ccc(C)cc2)c2[nH]c(=O)n(C)c(=O)c21)S(=O)(=O)c1ccc(C)cc1 (stereo unspecified) | > 100 µM | > 100 µM | > 100 µM | > 100 µM | – | > 100 µM | > 100 µM | > 100 µM | – | – | – | – | – | – | – | – | – | – | – | –
O=C(c1ccccc1)C1OC12C(=O)Nc1ccccc12 (stereo unspecified) | 81.8 µM | > 100 µM | > 100 µM | 37.9 µM | > 100 µM | > 100 µM | > 100 µM | > 100 µM | – | – | – | – | – | – | – | – | – | – | – | –
O=C1NC2OC(C(O)CO)C(O)C2O1 (stereo unspecified) | > 100 µM | > 100 µM | > 100 µM | > 100 µM | > 100 µM | > 100 µM | > 100 µM | > 100 µM | – | – | – | – | – | – | – | – | – | – | – | –
O=C(CCC1OCCO1)Nc1cc(NCc2ccccc2)ccc1OCc1ccccc1 | > 100 µM | > 100 µM | > 100 µM | 96.6 µM | > 100 µM | > 100 µM | 49.7 µM | 62.7 µM | – | > 100 µM | – | – | – | – | – | – | – | – | – | –
N#CC1CC2(C1)OCCS2 (stereo unspecified) | > 100 µM | > 100 µM | > 100 µM | > 100 µM | > 100 µM | > 100 µM | > 100 µM | – | – | – | – | – | – | – | – | – | – | – | – | –
NC(=O)NCc1c(C(N)=O)ncn1Cc1ccccc1 | > 100 µM | > 100 µM | > 100 µM | > 100 µM | > 100 µM | > 100 µM | – | – | – | – | – | – | – | – | – | – | – | – | – | –
C1C[OH+]CC[OH+]CC[OH+]CC[OH+]CC[OH+]1.[Cl-].[V] | > 100 µM | > 100 µM | > 100 µM | > 100 µM | > 100 µM | 43.7 µM | > 100 µM | 32 µM | – | – | 28.5 µM | 31.5 µM | 30.6 µM | > 100 µM | 75 µM | 19 µM | 48.2 µM | 13.4 µM | – | –
O=C1OC2CCCC[C@@H]2C2C[C@]34CCCCC3[C@@H](C(=O)O4)C12 (stereo partly specified) | > 100 µM | > 100 µM | > 100 µM | > 100 µM | > 100 µM | > 100 µM | > 100 µM | > 100 µM | – | – | – | – | – | – | – | – | – | – | – | –
Cc1ccc(-c2nc3ccc(Cl)cc3c(=O)n2N2C(=O)CSC2c2ccccc2Cl)cc1 (stereo unspecified) | > 100 µM | > 100 µM | > 100 µM | > 100 µM | > 100 µM | > 100 µM | – | > 100 µM | > 100 µM | > 100 µM | 4.73 µM | 25.8 µM | 70.1 µM | 60.2 µM | 0.627 µM | 3.62 µM | – | 5.97 µM | 83 µM | > 100 µM
Cc1c(C(=O)/C=C/c2ccccc2)[n+](=O)c2ccccc2n1[O-] | 31.5 µM | 28.6 µM | 28.3 µM | 35.7 µM | 33.6 µM | 32 µM | – | 33.6 µM | – | – | – | – | – | – | – | – | – | – | – | –
COc1ccc2nc(NC(=O)C(=O)C(C#N)c3ccc([N+](=O)[O-])cc3)sc2c1 (stereo unspecified) | > 100 µM | > 100 µM | > 100 µM | > 100 µM | > 100 µM | > 100 µM | > 100 µM | > 100 µM | – | – | – | – | – | – | – | – | – | – | – | –
Nc1ccc2cc3ccc(N)cc3nc2c1 | 7.12 µM [middle of 4 runs] | 3.73 µM [middle of 4 runs] | 7.71 µM and 3.58 µM and 3.09 µM | 9.02 µM [middle of 4 runs] | – | 11.8 µM [middle of 4 runs] | – | 3.21 µM [middle of 4 runs] | 4.88 µM and 24.7 µM | 10.4 µM and 16.2 µM and 12 µM | 1.47 µM | – | – | – | 0.609 µM | 1.97 µM [middle of 4 runs] | – | 1.16 µM [middle of 4 runs] | 0.857 µM and 1.96 µM and 1.5 µM | 1.91 µM
O=C1CSC(/C(=N/Nc2ccccc2)c2nc3ccccc3[nH]2)=N1 | 58.5 µM | > 100 µM | > 100 µM | > 100 µM | > 100 µM | 80 µM | > 100 µM | > 100 µM | – | – | – | – | – | – | – | – | – | – | – | –
CCNC(=O)Nc1cccc(NC(=O)NCC)n1 | > 100 µM | > 100 µM | – | > 100 µM | > 100 µM | > 100 µM | – | > 100 µM | > 100 µM | > 100 µM | – | – | – | – | – | – | – | – | – | –
COc1cc(NC(C)CCCN)c2nccc(C)c2c1 (stereo unspecified) | 35.4 µM | 35.8 µM | – | > 100 µM | 74.6 µM | 38 µM | 37.9 µM | 35.6 µM | – | 56.7 µM | – | – | – | – | – | – | – | – | – | –
N#Cc1cccnc1Cl | > 100 µM | > 100 µM | > 100 µM | > 100 µM | > 100 µM | > 100 µM | > 100 µM | > 100 µM | – | – | – | – | – | – | – | – | – | – | – | –
Cn1c2ccccc2c(=O)c2ccc(Cl)cc21 | > 10 µM | > 10 µM | > 10 µM | > 10 µM | – | > 10 µM | > 10 µM | > 10 µM | > 10 µM | – | – | – | – | – | – | – | – | – | – | –
